The record followed here is patent US10695314B2, “Antimicrobial composition containing 7,10-epoxyoctadeca-7,9-dienoic acid as active ingredient” (priority 2016, dated 2020).

≈ marks a conversion by molar mass, not a printed value. Where a SMILES comes first, the peptide text is derived from it. Bridges are numbered along the chain shown (N, C = ends). [ ]: non-standard residue; d: D form. The star is where a group is joined. Ileψ(thiazoline)Cys = CC[C@H](C)[C@H](N)C1=N[C@H](C(=O)*)CS1; dOrn = NCCC[C@@H](N)C(=O)O

Usually MIC stands for the least concentration at which growth counts as inhibited.

Assay [1] has as its system Staphylococcus aureus ATCC 29213. As to the kind of experiment: Minimal inhibitory concentration (MIC), broth microdilution per CLSI. Type of assay: cell-based. Conditions: Staphylococcus aureus, ATCC29213; strain 29213 (ATCC 29213); antibiotic alone; read-out: MIC. How it is done:
The minimum inhibitory concentration (MIC) of antibiotics and the activity of 7,10-EODA of the present invention against Staphylococcus aureus strains were measured according to the CLSI guideline (CLSI document M100-517, 2007). Specifically, each antibiotic or 7,10-EODA was diluted 2-fold (200-0.97 μg/mL) by adding MHB (Mueller-Hinton Broth) to a 96-well microtiter plate. In the mid-exponential phase (0.5 OD600), the culture was diluted 10-fold with MHB and 0.1 mL aliquots of the diluent were added to wells containing the serially diluted test reagent and cultured at 37° C. for 12 hours. About the end of the culture period, the cell density was measured at an optical density of 600 nm (OD600) using a […].
(§1) Specifically, the minimal inhibitory concentration (MIC) was measured according to the method of Experimental Example 4 above, and the degree of inhibition (Agar diffusion analysis) (zone of inhibition; ZOI) was measured according to the method of Experimental Example 5 above.
(Broth dilution looks for growth in wells or tubes with falling amounts of substance.)

Assay [2] has as its system MDRSA 01ST001. As to the kind of experiment: Agar disk diffusion analysis, zone of inhibition (ZOI). Type of assay: cell-based, Staphylococcus aureus. Conditions: for antimicrobial activity, disk diffusion: 100 μg each, FIG. 4; for antimicrobial activity effect in combination with 7,10-EODA: antibiotic treated in combination with 7,10-EODA, Table 1 summary; for ZOI without 7.10-EODA / ZOI with 7.10-EODA: strain 001; for ZOI without 7.10-EODA: antibiotic ½×MIC alone; for ZOI with 7.10-EODA: antibiotic ½×MIC with 7,10-EODA ¼×MIC. How it is done:
(§2) For synergy effect screening, a 0.1 mL aliquot of MRSA or MSSA strain (5×10^5 CFU/mL) cultured in a log-phase on TSA plates was inoculated. […] A disk including DMSO alone or 7,10-EODA alone (¼×MIC) was used as a control group. The plates were cultured under conditions of […] and 24 hours, and a synergistic effect was observed when the disk periphery including both antibiotic and 7,10-EODA was at least 5 mm in zone of inhibition (ZOI).
Specifically, in order to compare the antimicrobial activity of the 7,10-EODA or the antibiotic of the present invention against the MDRSA 01ST001 strain, the MDRSA 01ST001 strain was treated with the 7,10-EODA (E 100 μg) of the present invention, streptomycin (S, 100 μg), ampicillin (A, 100 μg), oxacillin (O, 100 μg), vancomycin (V, 100 μg), or penicillin (P, 100 μg), according to the method described in Experimental Example 5.
as §1
Background: A growth-free zone around the sample is the usual read-out of agar diffusion tests.

The test system of assay [3] is Staphylococcus aureus ATCC 29213. Described as above. Type of assay: cell-based. Particulars: strain 29213; for ZOI without 7.10-EODA: antibiotic ½×MIC alone; for ZOI with 7.10-EODA: antibiotic ½×MIC with 7,10-EODA ¼×MIC. How it is done:
as §2, §1

A further assay concerns E. coli ATCC 8739. The assay can be described thus: Checker board synergy evaluation (MIC, FICI). Type of assay: cell-based. Conditions: Escherichia coli, ATCC8739, 24 h; strain 8739; single agent. How it is done:
(§3) Interactions of the selected antibiotic or 7,10-EODA of the present invention were evaluated using the checker board method (Nair et al. 2015). […] To obtain various concentrations of 7,10-EODA and antibiotic combination, a 2-fold dilution of the beta-lactam antibiotic was placed on the same plate. About 10^5 CFU/mL of microorganisms to be tested was added to the wells of each plate, and cultured for 24 hours at 37° C. without shaking. At the end of the culture period, cell growth was measured at OD600 using a spectrophotometer. Each 7,10-EODA and antibiotic combination was repeated at least three times. MIC was identified at the lowest concentration of antibiotics with growth inhibition of 90% or higher. FICAB means fractional inhibitory concentration (FIC) of drug A in the presence of drug B, and FICBA means fractional inhibitory concentration (FIC) of drug B in the presence of drug A. The fractional inhibitory concentration index (FICI) represents the sum of the FIC values of the interacting antibiotics. Interactions are based on FICI values, with FICIs less than 0.5 being categorized as synergy, FICIs 0.5 to 4 being indifferent, and FICIs greater than 4 being antagonistic. The degree of synergy was also measured based on the conventional Bliss independence model of synergy (Morones-Ramirez et al. 2013). Specifically, the degree of synergy was calculated by the following equation: S indicates degree of synergy, fAB indicates bacterial growth (optical density) when 7,10-EODA and antibiotics are used in combination, fA0 and f0B represent bacterial growth for antibiotic alone or 7,10-EODA single treatment, respectively. f00 represents bacterial growth in the absence of drug. The degree of synergy is divided into three categories based on the S value, where 0 means neutral, greater than 0 means synergism, and less than 0 means antagonism. S=(fA0/f00)(f0B/f00)−(fAB/f00)
(§4) The antimicrobial activity synergistic effects according to the combination treatment of 7,10-EODA and each antibiotic on methicillin-resistant Staphylococcus aureus (MRSA) strains 085, 093, 120, 136, and 165, MDRSA 01ST001, which is a multidrug-resistant Staphylococcus aureus (MDRSA) strain, E. coli ATCC 8739, and S. typhimurium KCTC 2515 were confirmed. […] Fractional inhibitory concentration indices (FICI) values accordingly were confirmed.

Assay [4] deals with MDRSA 01ST001. As to the kind of experiment: Checker board synergy evaluation (MIC, FICI). Type of assay: cell-based. Conditions: Staphylococcus aureus, 24 h; strain 001; single agent. Here is the method: as §3, §4
In a further assay the test system is MRSA strain 085. As to the kind of experiment: Checker board synergy evaluation (MIC, FICI). Type of assay: cell-based. Conditions: Staphylococcus aureus, 24 h, strain 085, single agent, read-out: MIC. Here is the method:
as §3, §4

The subject of a further assay is MRSA strain 093. The assay can be described thus: Checker board synergy evaluation (MIC, FICI). Type of assay: cell-based. Particulars: Staphylococcus aureus, 24 h, strain 093, single agent, read-out: MIC. Here is the method:
as §3, §4

In a further assay the test system is MRSA strain 120. As to the kind of experiment: Checker board synergy evaluation (MIC, FICI). Type of assay: cell-based. Particulars: Staphylococcus aureus, 24 h, strain 120, single agent, read-out: MIC. How it is done: as §3, §4
A further assay deals with MRSA strain 136. As to the kind of experiment: Checker board synergy evaluation (MIC, FICI). Type of assay: cell-based. Conditions: Staphylococcus aureus, 24 h, strain 136, single agent, read-out: MIC. How it is done: as §3, §4
Another assay relates to MRSA strain 165. The assay can be described thus: Checker board synergy evaluation (MIC, FICI). Type of assay: cell-based. Particulars: Staphylococcus aureus, 24 h, strain 165, single agent, read-out: MIC. Here is the method: as §3, §4
The test system of another assay is S. typhimurium KCTC 2515. The assay can be described thus: Checker board synergy evaluation (MIC, FICI). Particulars: Salmonella enterica, 24 h; strain 2515; single agent. Type of assay: cell-based, Salmonella typhimurium. How it is done: as §3, with “S=(fA0/f00)(f0B/f00)−(fAB/f00) […]” for “S=(fA0/f00)(f0B/f00)−(fAB/f00)”
The test system of assay [5] is MRSA 01ST001 (MDRSA 01ST001). As to the kind of experiment: Antimicrobial activity on solid medium (clear zone around filter paper). Type of assay: cell-based, Staphylococcus aureus. Conditions: for clear zone on agar plate: 100 μg per filter paper, 37° C., 2 to 3 days, FIG. 1. Here is the method:
(§5) First, 1.5% of potato agar was added to the YDP medium, sterilized, and then an agar plate hardened by pouring about 20 ml in a plastic Petri dish was used. MRSA 01ST001 was diluted to about 107/ml, and then about 500 μl was dispersed evenly on the agar plate.
(§6) The size of the clear zone around the filter paper shown after the culture at 37° C. for 2 to 3 days after the inoculation was measured to confirm the degree of antimicrobial activity. At this time, vancomycin 100 μg, oxacillin 100 μg, ampicillin 100 μg, streptomycin 100 μg, and penicillin 100 μg were used as control groups.
(§7) The antimicrobial activity can be confirmed with the degree showing the clear zone on the agar plate. It is judged that the larger the clear zone, the higher the antimicrobial activity. The results are illustrated in FIG. 1 and FIG. 2.
(§8) The results are illustrated in FIG. 3. The experiment was carried out in the same manner as in Example 1-2.

Assay [6] relates to MDRSA 01ST001. As to the kind of experiment: Minimal inhibitory concentration (MIC), broth microdilution per CLSI. Particulars: Staphylococcus aureus.
Assay [7] deals with MDRSA 01ST001. As to the kind of experiment: Degree of synergy (Bliss independence model). Type of assay: cell-based, Staphylococcus aureus. Conditions: antibiotic ¼×MIC in combination with 7,10-EODA 15.6 μg/mL (⅛×MIC), 24 hours. Here is the method: as §3
(§9) The results are illustrated in FIG. 10. […]

The test system of a further assay is MRSA 01ST018. As to the kind of experiment: Degree of synergy (Bliss independence model). Particulars: antibiotic ¼×MIC in combination with 7,10-EODA 15.6 μg/mL (⅛×MIC); 24 hours; MRSA 018. Type of assay: cell-based, Staphylococcus aureus. How it is done: as §3, §9
In assay [8] the test system is Staphylococcus aureus ATCC 29213. The assay can be described thus: Antimicrobial activity on solid medium (clear zone around filter paper). Type of assay: cell-based. Conditions: FIG. 3. How it is done:
as §5, §6, §7, §8

As for `CC1(C)S[C@@H]2[C@H](NC(=O)[C@H](N)c3ccccc3)C(=O)N2[C@H]1C(=O)O` [AMP, ampicillin], the MIC in assay [1] is 1.97 µg/mL (≈ 5.64 µM); with E. coli ATCC 8739, 0.6 µg/mL; with MDRSA 01ST001 [4] it was 1000 µg/mL; in the assay on MRSA strain 085, 1000 µg/mL; in the assay on MRSA strain 093, 31.2 µg/mL; with MRSA strain 120, 250 µg/mL. Further, the MIC is 1000 µg/mL in the assay on MRSA strain 136, 2000 µg/mL with MRSA strain 165, 0.6 µg/mL with S. typhimurium KCTC 2515 and 1000 µg/mL (≈ 2860 µM) with MDRSA 01ST001 [6]. Moreover, the “antimicrobial activity, disk diffusion” value in the assay with MDRSA 01ST001 [2] is recorded as “resistant”. Moreover, in the assay with MDRSA 01ST001 [2], the “antimicrobial activity effect in combination with 7,10-EODA” value is recorded as “strong antimicrobial activity effect”. The “ZOI without 7.10-EODA” value was 7.3 ± 0.2 mm in the assay on MDRSA 01ST001 [2] and 16.9 ± 0.3 mm in [3]. Moreover, the entries for the “ZOI with 7.10-EODA” value (with MDRSA 01ST001 [2]; in assay [3]) were 14.2 mm and 17.0 mm, respectively. In [5], the “clear zone on agar plate” value is recorded as “no clear zone appeared”.
For the molecule gentamicin, the synergy index in the assay on MDRSA 01ST001 [7] is reported as 1.37; in the assay with MRSA 01ST018, 1.32.
Take `CC[C@H](C)[C@H](N)C1=N[C@H](C(=O)N[C@@H](CC(C)C)C(=O)N[C@H](CCC(=O)O)C(=O)N[C@H](C(=O)N[C@H]2CCCCNC(=O)[C@H](CC(N)=O)NC(=O)[C@@H](CC(=O)O)NC(=O)[C@H](Cc3cnc[nH]3)NC(=O)[C@@H](Cc3ccccc3)NC(=O)[C@H]([C@@H](C)CC)NC(=O)[C@@H](CCCN)NC2=O)[C@@H](C)CC)CS1` [bacitracin] ({Ileψ(thiazoline)Cys}-L[dE]IK[dOrn]I[dF]H[dD]N; lactam 4-C): the synergy index with MDRSA 01ST001 [7] was found to be 0.8.
Take `Cc1onc(-c2ccccc2)c1C(=O)N[C@@H]1C(=O)N2[C@@H]1SC(C)(C)[C@@H]2C(=O)O` [OXA, oxacillin]: the MIC was 0.04 µg/mL (≈ 0.0996 µM) in [1]; 200 µg/mL in the assay with E. coli ATCC 8739; 62.5 µg/mL in the assay with MDRSA 01ST001 [4]; 250 µg/mL in the assay with MRSA strain 085; 2000 µg/mL in the assay on MRSA strain 093; 250 µg/mL in the assay with MRSA strain 120. The minimum inhibitory concentration (MIC) in the assay with MRSA strain 136 was 62.5 µg/mL; with MRSA strain 165 it was 31.2 µg/mL; in the assay with S. typhimurium KCTC 2515, 250 µg/mL; in the assay on MDRSA 01ST001 [6], 62.5 µg/mL (≈ 156 µM). Besides, the “antimicrobial activity, disk diffusion” value in the assay on MDRSA 01ST001 [2] is “resistant”. Moreover, in the assay on MDRSA 01ST001 [2], the “antimicrobial activity effect in combination with 7,10-EODA” value is “strong antimicrobial activity effect”. Further, the “ZOI without 7.10-EODA” value in the assay on MDRSA 01ST001 [2] stood at 6.0 ± 0.1 mm; in [3], 8.3 ± 0.1 mm. Further, the “ZOI with 7.10-EODA” value in the assay with MDRSA 01ST001 [2] is listed as 14.1 mm; in assay [3] it was 9.60 mm. In assay [5], the “clear zone on agar plate” value is on record as “no clear zone appeared”. Further, the “antimicrobial activity on solid medium” value in assay [5] (MDRSA 01ST001, FIG. 3) is “did not show an antimicrobial activity”; in [8] it was “high antimicrobial activity”.
